# Source: patent publication US4477659A, “Cephalosporin compound” (Asahi Kasei Kogyo Kabushiki Kaisha, priority 1981, dated 1984)
# Key:
# [1] = Blood concentration, oral, rats, suspended in CMC aqueous solution (Example 17); format: in vivo, Male Wistar rats; settings: 50 mg/kg oral, rat; for concentration at 0.5 h / concentration at 1 h / concentration at 4 h: blood, read-out: Blood Concentration of the Compound
# Method: (§1) Male Wistar rats weighing 180-250 g were fed with only water overnight. The next day the rats were orally administered with 50 mg/kg of a test compound which was dissolved in a buffer solution having pH of 7. The concentration of the compound in blood of the tested animals (one group consisting of 6 animals) was measured 0.5, 1, 2 and 4 hours after the administration by Bioassay method by using Bacillus subtilis ATCC 6633 strain as an indicator bacteria. In the measurement, an ordinary culture medium was employed, and the preparation of the standard solution and other method were carried out in according to Japanese Antibiotical Pharmaceutical Standards. Further, the concentration of the compound in blood was also measured by high performance liquid chromatography. The blood concentration shown below was an average value of each animal group.
# The blood concentration of the compounds as obtained in Examples 12-15 and the compounds as obtained in the same manner as in Examples 3 and 12, respectively, was measured. The measurement was carried out in the same manner as Example 16 except that the test compound was suspended in a CMC aqueous solution instead of being dissolved in a buffer solution having pH of 7.
# [2] = system: Salm enteritidis Gaertner; experiment: MIC (Table 4); format: cell-based; settings: 10^8 cells/ml; unit assumed
# Excerpt: (§2) | MIC Value (10^8 cells/ml)
# [3] = system: Klebs. pneumoniae ATCC 10031; experiment: MIC (Table 4); format: cell-based; settings: 10^8 cells/ml; unit assumed
# Excerpt: as §2
# E. Coli W3630 = experiment: MIC (Table 4); format: cell-based; settings: 10^8 cells/ml; unit assumed
# Excerpt: as §2
# E. Coli NIHJ-JC2 = experiment: MIC (Table 4); format: cell-based; settings: 10^8 cells/ml; unit assumed
# Excerpt: as §2
# Staph. aureus MS 27 = experiment: MIC (Table 4); format: cell-based; settings: 10^8 cells/ml; unit assumed
# Excerpt: as §2
# Staph. aureus 0003 = experiment: MIC (Table 4); format: cell-based; settings: 10^8 cells/ml; unit assumed
# Excerpt: as §2
# E. Coli W3630 ps 3 = experiment: MIC (Table 4); format: cell-based; settings: 10^8 cells/ml; unit assumed
# Excerpt: as §2
# Staph. aureus ATCC 6538p = experiment: MIC (Table 4); format: cell-based; settings: 10^8 cells/ml; unit assumed
# Excerpt: as §2
# [4] = Absorption test, oral, rats, solution in buffer pH 7 (Example 16); format: in vivo, Male Wistar rats; settings: blood, 50 mg/kg oral, rat, average of 6, read-out: Blood Concentration of the Compound
# Method: The absorption test of the compounds as obtained in Examples 1-11 were tested by the following method.
# as §1
molecule,measurement,setting,value
7-β-[4-(2'-amino-2'-carboxy)ethylimidazol-2-yl-thioacetamido]-7α-methoxy-3-[(1-methyl-1H-tetrazol-5-yl) thiomethyl]-3-cephem-4-carboxylic acid ditert-butylcarboxymethyl ester [(19)],Blood Concentration of the Compound,[1]; 0.5 hr.,7200 ng/mL
same,Blood Concentration of the Compound,[1]; 1 hr.,3900 ng/mL
same,Blood Concentration of the Compound,[1]; 4 hrs.,1600 ng/mL
"CC(=O)NC(Cc1c[nH]c(SCC(=O)NC2C(=O)N3C(C(=O)O)=C(CSc4nnc(C)s4)CSC23)n1)C(=O)O (stereo not drawn) [(18), 7-β-[4-(2'-methylamido-2'-carboxy)ethylimidazol-2-yl-thioacetamido]-3-[2-(2-methyl-1,3,4-thiazolyl)thiomethyl]-3-cephem-4-carboxylic acid]",Blood Concentration of the Compound,[1]; 0.5 hr.,10300 ng/mL
same,Blood Concentration of the Compound,[1]; 1 hr.,11200 ng/mL
same,Blood Concentration of the Compound,[1]; 4 hrs.,4900 ng/mL
"CC1=C(C(=O)O)N2C(=O)[C@@H](NC(=O)[C@H](N)c3ccccc3)[C@H]2SC1 [Cephalexin, reference compound]",MIC Value,[2],> 100 µg/mL
same,MIC Value,[3],25 µg/mL
same,MIC Value,E. Coli W3630,> 100 µg/mL
same,MIC Value,E. Coli NIHJ-JC2,> 100 µg/mL
same,MIC Value,Staph. aureus MS 27,50 µg/mL
same,MIC Value,Staph. aureus 0003,50 µg/mL
same,MIC Value,E. Coli W3630 ps 3,> 100 µg/mL
same,MIC Value,Staph. aureus ATCC 6538p,3.1 µg/mL
"Cn1nnnc1SCC1=C(C(=O)O)N2C(=O)[C@@H](NC(=O)CSc3nc(C[C@H](N)C(=O)O)c[nH]3)[C@H]2SC1 [Example 2, 7-β-[4-(2'-amino-2'-carboxy)ethylimidazol-2-yl-thioacetamido]-3-[(1-methyl-1H-tetrazol-5-yl)thiomethyl]-3-cephem-4-carboxylic acid]",concentration at 0.5 h,[4],4700 ng/mL
same,concentration at 1 h,[4],2900 ng/mL
same,concentration at 2 h,[4],2000 ng/mL
same,concentration at 4 h,[4],1000 ng/mL
"Cc1nnc(SCC2=C(C(=O)O)N3C(=O)[C@@H](NC(=O)CSc4nc(C[C@H](N)C(=O)O)c[nH]4)[C@H]3SC2)s1 [Example 3, 7-β-[4-(2'-amino-2'-carboxy)ethylimidazol-2-yl-thioacetamido]-3-[2-(2-methyl-1,3,4-thiazolyl)thiomethyl]-3-cephem-4-carboxylic acid]",concentration at 0.5 h,[4],11300 ng/mL
same,concentration at 1 h,[4],12400 ng/mL
same,concentration at 2 h,[4],13700 ng/mL
same,concentration at 4 h,[4],9400 ng/mL
"N[C@@H](Cc1c[nH]c(SCC(=O)N[C@@H]2C(=O)N3C(C(=O)O)=C(CSc4nc[nH]n4)CS[C@H]23)n1)C(=O)O [Example 4, 7-β-[4-(2'-amino-2'-carboxy)ethylimidazol-2-yl-thioacetamido]-3-[(1,3,4-triazole)thiomethyl]-3-cephem-4-carboxylic acid]",concentration at 0.5 h,[4],2100 ng/mL
same,concentration at 1 h,[4],1200 ng/mL
same,concentration at 2 h,[4],400 ng/mL
same,concentration at 4 h,[4],100 ng/mL
"N[C@@H](Cc1c[nH]c(SCC(=O)N[C@@H]2C(=O)N3C(C(=O)O)=C(CSc4cnn[nH]4)CS[C@H]23)n1)C(=O)O [Example 5, 7-β-[4-(2'-amino-2'-carboxy)ethylimidazol-2-yl-thioacetamido]-3-[(1,2,3-triazole)thiomethyl]-3-cephem-4-carboxylic acid]",concentration at 0.5 h,[4],12400 ng/mL
same,concentration at 1 h,[4],13700 ng/mL
same,concentration at 2 h,[4],14300 ng/mL
same,concentration at 4 h,[4],10200 ng/mL
"Cc1nnc(SCC2=C(C(=O)O)N3C(=O)[C@@H](NC(=O)CSc4nc(C[C@H](N)C(=O)O)c[nH]4)[C@H]3SC2)o1 [Example 6, 7-β-[4-(2'-amino-2'-carboxy)ethylimidazol-2-yl-thioacetamido]-3-[(2-methyl-1,3,4-oxadiazole)thiomethyl]-3-cephem-4-carboxylic acid]",concentration at 0.5 h,[4],8000 ng/mL
same,concentration at 1 h,[4],5300 ng/mL
same,concentration at 2 h,[4],3600 ng/mL
same,concentration at 4 h,[4],1000 ng/mL
"Cn1nncc1SCC1=C(C(=O)O)N2C(=O)[C@@H](NC(=O)CSc3nc(C[C@H](N)C(=O)O)c[nH]3)[C@H]2SC1 [Example 7, 7-β-[4-(2'-amino-2'-carboxy)ethylimidazol-2-yl-thioacetamido]-3-[(1-methyl-1H-1,2,3-triazole)thiomethyl]-3-cephem-4-carboxylic acid]",concentration at 0.5 h,[4],4200 ng/mL
same,concentration at 1 h,[4],2100 ng/mL
same,concentration at 2 h,[4],700 ng/mL
same,concentration at 4 h,[4],400 ng/mL
"CC1=C(C(=O)O)N2C(=O)[C@@H](NC(=O)CSc3nc(C[C@H](N)C(=O)O)c[nH]3)[C@H]2SC1 [Example 8, 7-β-[4-(2'-amino-2'-carboxy)ethylimidazol-2-yl-thioacetamido]-3-methyl-3-cephem-4-carboxylic acid]",concentration at 0.5 h,[4],14900 ng/mL
same,concentration at 1 h,[4],11300 ng/mL
same,concentration at 2 h,[4],7200 ng/mL
same,concentration at 4 h,[4],4000 ng/mL
"COC1=C(C(=O)O)N2C(=O)[C@@H](NC(=O)CSc3nc(C[C@H](N)C(=O)O)c[nH]3)[C@H]2SC1 [Example 9, 7-β-[4-(2'-amino-2'-carboxy)ethylimidazol-2-yl-thioacetamido]-3-methoxy-3-cephem-4-carboxylic acid]",concentration at 0.5 h,[4],8400 ng/mL
same,concentration at 1 h,[4],6700 ng/mL
same,concentration at 2 h,[4],3400 ng/mL
same,concentration at 4 h,[4],1100 ng/mL
"N[C@@H](Cc1c[nH]c(SCC(=O)N[C@@H]2C(=O)N3C(C(=O)O)=C(Cl)CS[C@H]23)n1)C(=O)O [Example 10, 7-β-[4-(2'-amino-2'-carboxy)ethylimidazol-2-yl-thioacetamido]-3-chloro-3-cephem-4-carboxylic acid]",concentration at 0.5 h,[4],7400 ng/mL
same,concentration at 1 h,[4],5900 ng/mL
same,concentration at 2 h,[4],3000 ng/mL
same,concentration at 4 h,[4],1800 ng/mL
"N[C@@H](Cc1c[nH]c(SCC(=O)N[C@@H]2C(=O)N3C(C(=O)O)=CCS[C@H]23)n1)C(=O)O [Example 11, 7-β-[4-(2'-amino-2'-carboxy)ethylimidazol-2-yl-thioacetamido]-3-cephem-4-carboxylic acid]",concentration at 0.5 h,[4],8300 ng/mL
same,concentration at 1 h,[4],7400 ng/mL
same,concentration at 2 h,[4],4200 ng/mL
same,concentration at 4 h,[4],1800 ng/mL
"CO[C@@]1(NC(=O)CSc2nc(C[C@H](N)C(=O)O)c[nH]2)C(=O)N2C(C(=O)O)=C(COC(C)=O)CS[C@@H]21 [Example 12, 7-β-[4-(2'-amino-2'-carboxy)ethylimidazol-2-yl-thioacetamido]-7α-methoxy-3-acetoxymethyl-3-cephem-4-carboxylic acid]",concentration at 0.5 h,[1]; 0.5 hr.,3900 ng/mL
same,concentration at 1 h,[1]; 1 hr.,1700 ng/mL
same,concentration at 4 h,[1]; 4 hrs.,400 ng/mL
"CO[C@@]1(NC(=O)CSc2nc(C[C@H](N)C(=O)O)c[nH]2)C(=O)N2C(C(=O)O)=C(CSc3nnnn3C)CS[C@@H]21 [Example 13, 7-β-[4-(2'-amino-2'-carboxy)ethylimidazol-2-yl-thioacetamido]-7α-methoxy-3-[(1-methyl-1H-tetrazol-5-yl)thiomethyl]-3-cephem-4-carboxylic acid]",concentration at 0.5 h,[1]; 0.5 hr.,4600 ng/mL
same,concentration at 1 h,[1]; 1 hr.,3100 ng/mL
same,concentration at 4 h,[1]; 4 hrs.,1100 ng/mL
"CO[C@@]1(NC(=O)CSc2nc(C[C@H](N)C(=O)OCOC(C)=O)c[nH]2)C(=O)N2C(C(=O)OCOC(C)=O)=C(CSc3nnnn3C)CS[C@@H]21 [Example 14, 7-β-[4-(2'-amino-2'-carboxy)ethylimidazol-2-yl-thioacetamido]-7α-methoxy-3-[(1-methyl-1H-tetrazol-5-yl)thiomethyl]-3-cephem-4-carboxylic acid diacetoxymethyl ester]",concentration at 0.5 h,[1]; 0.5 hr.,6800 ng/mL
same,concentration at 1 h,[1]; 1 hr.,4100 ng/mL
same,concentration at 4 h,[1]; 4 hrs.,2300 ng/mL
"Cn1nnnc1SCC1=C(C(=O)O)N2C(=O)[C@@H](NC(=O)CSc3nc(C[C@H](NC=O)C(=O)O)c[nH]3)[C@H]2SC1 [Example 15, 7-β-[4-(2'-formamido-2'-carboxy)ethylimidazol-2-yl-thioacetamido]-3-[(1-methyl-1H-tetrazol-5-yl)thiomethyl]-3-cephem-4-carboxylic acid]",concentration at 0.5 h,[1]; 0.5 hr.,3900 ng/mL
same,concentration at 1 h,[1]; 1 hr.,2700 ng/mL
same,concentration at 4 h,[1]; 4 hrs.,1700 ng/mL
Cn1nnnc1SCC1=C(C(=O)O)N2C(=O)[C@@H](NC(=O)CSc3nc(C[C@H](N)C(=O)O)c[nH]3)[C@H]2SC1 [drawing 11],MIC Value,[2],12.5 µg/mL
same,MIC Value,[3],12.5 µg/mL
same,MIC Value,E. Coli W3630,25 µg/mL
same,MIC Value,E. Coli NIHJ-JC2,25 µg/mL
same,MIC Value,Staph. aureus MS 27,12.5 µg/mL
same,MIC Value,Staph. aureus 0003,12.5 µg/mL
same,MIC Value,E. Coli W3630 ps 3,25 µg/mL
same,MIC Value,Staph. aureus ATCC 6538p,1.6 µg/mL
Cc1nnc(SCC2=C(C(=O)O)N3C(=O)[C@@H](NC(=O)CSc4nc(C[C@H](N)C(=O)O)c[nH]4)[C@H]3SC2)s1 [drawing 13],MIC Value,[2],50 µg/mL
same,MIC Value,[3],25 µg/mL
same,MIC Value,E. Coli W3630,50 µg/mL
same,MIC Value,E. Coli NIHJ-JC2,50 µg/mL
same,MIC Value,Staph. aureus MS 27,25 µg/mL
same,MIC Value,Staph. aureus 0003,25 µg/mL
same,MIC Value,E. Coli W3630 ps 3,50 µg/mL
same,MIC Value,Staph. aureus ATCC 6538p,1.6 µg/mL
